The subject of series [1] is Yap1 mRNA. As to the kind of experiment: Antisense inhibition of human Yap1 in A-431 cells by cEt gapmers, single dose (Example 2, RTS4814). The series is classed as cell-based. The gist of the method: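 Each 16-nucleoside gapmer (ten-deoxy gap, three-cEt wings) is tested once at 2,000 nM in A-431 cells by free uptake. Yap1 mRNA after about 48 hours is measured by quantitative RT-PCR and expressed relative to untreated control.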

Series [2] is described as follows: Tolerability in Sprague-Dawley rats, plasma chemistry markers (Example 20). The series is classed as in vivo. Particulars: male Sprague-Dawley rats, 50 mg/kg s.c. weekly for 6 weeks (7 doses), 48 hours after last dose. On the procedure:
Sprague-Dawley rats are a multipurpose model used for safety and efficacy evaluations. The rats were treated with Ionis modified oligonucleotides from the studies described in the Examples above and evaluated for changes in the levels of various plasma chemistry markers.

Series [3] can be described thus: Tolerability in Sprague-Dawley rats, body and organ weights (Example 21). Particulars: male Sprague-Dawley rats, 50 mg/kg s.c. weekly for 6 weeks (7 doses); for Kidney weight / Liver weight / Spleen weight: end of study; for body weight: terminal, prior to necropsy. Format: in vivo. On the procedure:
Terminal body weight was measured prior to necropsy. Ionis oligonucleotides that caused any changes in organ weights outside the expected range for modified oligonucleotides were excluded from further studies.

For series [4], the system named is Yap1 mRNA. As to the kind of experiment: Yap1 mRNA levels in SNU449 xenograft tumors (first Example 30). The series is classed as in vivo, human. Particulars: SNU449 xenograft mice, 50 mg/kg, tumors collected day 119 post implantation, relative to PBS. On the procedure:
(§1) Modified oligonucleotides described in the studies above were tested in a hepatocellular carcinoma SNU449 xenograft tumor model. A control oligonucleotide 792169 was also tested.
(§2) Five million SNU449 cells in 30% matrigel were implanted subcutaneously into the fatpads of female NOD.Cg-Prkdcscid II2rgtmlWjl/SzJ mice (from Jackson Laboratory) at 4-6 weeks of age. 43 days post implantation (when tumors had reached approximately 100 mm^3 in size), groups of eight mice each were administered with 50 mg/kg modified oligonucleotide daily for 10 days (loading dose), following which they were administered with 50 mg/kg modified oligonucleotide four times a week for one week, following which they were dosed with 50 mg/kg modified oligonucleotide thrice weekly until the end of the study. Animals were sacrificed and tumors were collected on day 119 post implantation. Yap1 mRNA knockdown in tumors was measured by RT-qPCR as previously described using the Human Yap1 primer-probe set RTS4814. Yap1 mRNA levels were normalized to actin-beta content, as measured by primer probe set RTS5002. Results are presented in the tables below as percent control of the amount of Yap1 mRNA relative to PBS treated animals (% control).
(In xenograft studies the graft and the host belong to different species.)

Another series relates to SNU449 xenograft tumor. The experiment in a line: Tumor volume in SNU449 xenograft tumor model (first Example 30). Format: in vivo, human. Conditions: 50 mg/kg. On the procedure:
as §1, §2
Tumor volumes were also measured at the indicated days in the table below

The subject of series [5] is Yap1 mRNA. As to the kind of experiment: Yap1 mRNA levels in SNU449 xenograft tumors, alone and in combination with sorafenib (second Example 30). Format: in vivo, human. Particulars: SNU449 xenograft mice, oligonucleotide 50 mg/kg, sorafenib 30 mg/kg orally, tumors collected day 119 post implantation, relative to PBS. On the procedure: Modified oligonucleotides described in the studies above were tested in a hepatocellular carcinoma SNU449 xenograft tumor model. In addition to testing the modified oligonucleotide by itself, combination therapy with sorafenib was also tested. A control oligonucleotide 792169, described herein above, was also tested.
Five million SNU449 cells in 30% matrigel were implanted subcutaneously into the fatpads of female NOD.Cg-Prkdcscid II2rgtmlWjl/SzJ mice (from Jackson Laboratory) at 4-6 weeks of age. 43 days post implantation (when tumors had reached approximately 100 mm^3 in size), groups of eight mice each were administered with 50 mg/kg modified oligonucleotide daily for 10 days (loading dose), following which they were administered with 50 mg/kg modified oligonucleotide four times a week for one week, following which they were dosed with 50 mg/kg modified oligonucleotide thrice weekly until the end of the study. […] Animals were sacrificed, and tumors were collected on day 119 post implantation.
Yap1 mRNA knockdown in tumors was measured by RT-qPCR as previously described using the Human Yap1 primer-probe set RTS4814. Yap1 mRNA levels were normalized to actin-beta content, as measured by primer probe set RTS5002. Results are presented in the tables below as percent control of the amount of Yap1 mRNA relative to PBS treated animals (% control).

Where [6] appears, read: day 101 post tumor implantation.
[7] abbreviates: day 105 post tumor implantation.
The mark [8] stands for this setting: day 108 post tumor implantation.
The mark [9] stands for this setting: day 119 post tumor implantation.

Data on six substances can be found in patent US11214803B2, “Modulators of YAP1 expression” (Ionis Pharmaceuticals, Inc., priority 2019, dated 2022).

Marks after values point to notes of the source that are not given here. Strand notation (5' to 3'): a small letter for the sugar, then the base; units joined by * are phosphorothioate-linked, units joined directly phosphodiester-linked; [ ] holds rarer units or linkages, { } end groups; capitals alone tell only the bases. k = constrained ethyl (cEt); [5mC] = 5-methylcytosine; d = 2'-deoxy (DNA)

For the substance “958499 (ATTAGAGTATGTGGCA; 3-10-3 cEt gapmer, further chemistry not given here) [compound 958499]”, the “YAP1 (% UTC)” value in the series on Yap1 mRNA [1] (Table 32, Yap1 mRNA, percent of untreated control, 3-10-3 cEt gapmers targeting SEQ ID NO.: 1, and 2) was 2 % UTC. The “YAP1 (% UTC)” value with Yap1 mRNA [1] (Table 33, Yap1 mRNA, percent of untreated control, 3-10-3 cEt gapmers targeting SEQ ID NO.: 1, and 2) is recorded as 4 % UTC. For the same substance, in the series with Yap1 mRNA [1] (Yap1 mRNA as percent of untreated control, A-431 cells, 3-10-3 cEt gapmers targeting SEQ ID NO.: 1, and 2, Table 30), the “YAP1 (% UTC)” value was determined as 1 % UTC. Moreover, the “YAP1 (% UTC)” value in the series with Yap1 mRNA [1] (Yap1 mRNA as percent of untreated control, A-431 cells, 3-10-3 cEt gapmers targeting SEQ ID NO.: 1, and 2, Table 31) is listed as 1 % UTC. In addition, in series [2], the ALB is 2.78 g/dL, the ALT is on record as 61 U/L, the AST is 109 U/L and the BUN is 24 mg/dL. In addition, the TBIL in series [2] is 0.18 mg/dL.

On to “958499 (kA*kT*kT*dA*dG*dA*dG*dT*dA*dT*dG*dT*dG*kG*k[5mC]*kA) [Compound 958499]”, for which the “YAP1 (% UTC)” value with Yap1 mRNA [1] (Table 18, A-431 cells, 5,000 cells per well, free uptake, 2,000 nM modified oligonucleotide, approx. 48 hours, RTS4814, normalized to RIBOGREEN, Yap1 mRNA as percent of untreated control) is recorded as 1 % UTC; with Yap1 mRNA [1] (Table 19, A-431 cells, 5,000 cells per well, free uptake, 2,000 nM modified oligonucleotide, approx. 48 hours, RTS4814, normalized to RIBOGREEN, Yap1 mRNA as percent of untreated control), 2 % UTC; in the series on Yap1 mRNA [1] (Table 20, Yap1 mRNA, percent of untreated control, 3-10-3 cEt gapmers targeting SEQ ID NO.: 1 and 2), 1 % UTC; in the series with Yap1 mRNA [1] (Table 21, Yap1 mRNA, percent of untreated control, 3-10-3 cEt gapmers targeting SEQ ID NO.: 1 and 2), 1 % UTC; in the series with Yap1 mRNA [1] (Table 22, Yap1 mRNA as percent of untreated control, 3-10-3 cEt gapmers, single dose) it was 1 % UTC; in the series on Yap1 mRNA [1] (Table 23, Yap1 mRNA as percent of untreated control, 3-10-3 cEt gapmers, single dose) it was 2 % UTC. Moreover, the “YAP1 (% UTC)” value in the series with Yap1 mRNA [1] (Table 24, Yap1 mRNA as percent of untreated control, 3-10-3 cEt gapmers targeting SEQ ID NO.: 1, and 2) came to 2 % UTC; in the series on Yap1 mRNA [1] (Table 25, Yap1 mRNA as percent of untreated control, 3-10-3 cEt gapmers targeting SEQ ID NO.: 1, and 2), 1 % UTC.

For the substance “1076453 (GTAATATTGCAATCTG; 3-10-3 cEt gapmer, further chemistry not given here) [compound 1076453]”, in series [2], the ALB stood at 3.14 g/dL, the ALT was 47 U/L, the AST came to 77 U/L and the BUN is on record as 23 mg/dL. The TBIL in series [2] was determined as 0.13 mg/dL.

Consider “1198439 (AGTGTATGTCAGAAGA; sugar, 5-methylcytosine, phosphorothioate modifications, further chemistry not given here) [compound 1198439]”, for which, in series [3], the Kidney weight is given as 3.68* g, the Liver weight is 17* g, the Spleen weight was 2.28* g and the body weight is 319* g.

With “1198440 (AAGTGTATGTCAGAAG; cEt, 2'-MOE, 5-methylcytosine, phosphorothioate modifications, further chemistry not given here) [compound 1198440]”, in series [3], the Kidney weight is reported as 3.29 g. In series [3], this substance displayed a Liver weight of 18 g. For the same substance, the Spleen weight in series [3] is given as 2.78 g. The body weight in series [3] amounted to 373 g. Also, the “Yap1 mRNA levels in tumors” value in the series on Yap1 mRNA [4] and in the series with Yap1 mRNA [5] was 34 % control each time. For the same substance, the “Average Tumor Volume” value with SNU449 xenograft tumor (day 43 post tumor implantation) came to 111 mm^3; in the series with SNU449 xenograft tumor (day 46 post tumor implantation), 152 mm^3; in the series on SNU449 xenograft tumor (day 50 post tumor implantation) it was 168 mm^3; with SNU449 xenograft tumor (day 53 post tumor implantation), 201 mm^3; with SNU449 xenograft tumor (day 57 post tumor implantation), 242 mm^3; with SNU449 xenograft tumor (day 60 post tumor implantation) it was 263 mm^3. Also, the “Average Tumor Volume” value in the series with SNU449 xenograft tumor (day 64 post tumor implantation) turned out to be 338 mm^3; with SNU449 xenograft tumor (day 67 post tumor implantation), 376 mm^3; in the series with SNU449 xenograft tumor (day 71 post tumor implantation) it was 373 mm^3; with SNU449 xenograft tumor (day 75 post tumor implantation), 401 mm^3; with SNU449 xenograft tumor (day 78 post tumor implantation) it was 429 mm^3; in the series on SNU449 xenograft tumor (day 81 post tumor implantation), 514 mm^3. The “Average Tumor Volume” value in the series with SNU449 xenograft tumor (day 85 post tumor implantation) was 606 mm^3; in the series on SNU449 xenograft tumor (day 88 post tumor implantation), 613 mm^3; in the series on SNU449 xenograft tumor (day 92 post tumor implantation), 690 mm^3; with SNU449 xenograft tumor (day 94 post tumor implantation) it was 773 mm^3; in the series on SNU449 xenograft tumor (day 98 post tumor implantation), 804 mm^3; with SNU449 xenograft tumor (setting [6]) it was 818 mm^3. Moreover, the “Average Tumor Volume” value with SNU449 xenograft tumor (setting [7]) turned out to be 894 mm^3; with SNU449 xenograft tumor (setting [8]) it was 921 mm^3; in the series on SNU449 xenograft tumor (setting [9]), 978 mm^3.

As for “CGCCGATAAGGTACAC (cEt gapmer, phosphorothioate backbone, further chemistry not given here) [ION 792169, reference compound]”, the “Yap1 mRNA levels in tumors” value with Yap1 mRNA [4] and in the series with Yap1 mRNA [5] was 90 % control in each case. Further, the “Average Tumor Volume” value in the series with SNU449 xenograft tumor (day 43 post tumor implantation) stood at 111 mm^3; in the series on SNU449 xenograft tumor (day 46 post tumor implantation) it was 162 mm^3; with SNU449 xenograft tumor (day 50 post tumor implantation), 180 mm^3; in the series with SNU449 xenograft tumor (day 53 post tumor implantation), 247 mm^3; in the series with SNU449 xenograft tumor (day 57 post tumor implantation), 280 mm^3; with SNU449 xenograft tumor (day 60 post tumor implantation), 317 mm^3. For the same substance, the “Average Tumor Volume” value is 397 mm^3 in the series on SNU449 xenograft tumor (day 64 post tumor implantation); 466 mm^3 in the series with SNU449 xenograft tumor (day 67 post tumor implantation); 519 mm^3 in the series on SNU449 xenograft tumor (day 71 post tumor implantation); 559 mm^3 with SNU449 xenograft tumor (day 75 post tumor implantation); 634 mm^3 with SNU449 xenograft tumor (day 78 post tumor implantation); 681 mm^3 with SNU449 xenograft tumor (day 81 post tumor implantation). Moreover, the “Average Tumor Volume” value in the series with SNU449 xenograft tumor (day 85 post tumor implantation) worked out at 785 mm^3; with SNU449 xenograft tumor (day 88 post tumor implantation) it was 889 mm^3; in the series with SNU449 xenograft tumor (day 92 post tumor implantation), 1170 mm^3; with SNU449 xenograft tumor (day 94 post tumor implantation) it was 1215 mm^3; with SNU449 xenograft tumor (day 98 post tumor implantation) it was 1355 mm^3; in the series with SNU449 xenograft tumor (setting [6]), 1417 mm^3. The “Average Tumor Volume” value with SNU449 xenograft tumor (setting [7]) is 1509 mm^3; in the series on SNU449 xenograft tumor (setting [8]), 1571 mm^3; in the series with SNU449 xenograft tumor (setting [9]) it was 1697* mm^3.
